# Data published in paper PMC5218480 (PLoS ONE, 2017).
# System: MV-4-11 cells
# Assay: Gene expression microarray analysis (Affymetrix PrimeView) and GSEA
# Assay type: cell-based, human
# Parameters: RFU PODN (11730768_x_at) / Fold change /veh PODN (11730768_x_at) / RFU LINC00158 (11744669_a_at) / Fold change /veh LINC00158 (11744669_a_at) / RFU DUSP10 (11751237_a_at) / Fold change /veh DUSP10 (11751237_a_at) / RFU ID3 (11757404_x_at) / Fold change /veh ID3 (11757404_x_at) / RFU PLEKHG5 (11737974_s_at) / Fold change /veh PLEKHG5 (11737974_s_at) / RFU LRRC4B (11730491_at) / Fold change /veh LRRC4B (11730491_at) / RFU GIMAP4 (11747438_a_at) / Fold change /veh GIMAP4 (11747438_a_at) / RFU KRT8 (11758183_x_at) / Fold change /veh KRT8 (11758183_x_at) / RFU CNN1 (11734310_a_at) / Fold change /veh CNN1 (11734310_a_at) / RFU VPS37D (11726825_at) / Fold change /veh VPS37D (11726825_at) / RFU C10orf10 (11716522_x_at) / Fold change /veh C10orf10 (11716522_x_at) / RFU KIR2DL2 /// KIR2DL4 /// KIR2DL5A /// KIR2DL5B /// KIR2DS1 /// KIR2DS2 /// KIR2DS3 /// KIR2DS4 /// KIR3DL3 /// KIR3DL3 /// KIR3DS1 (11738374_at) / Fold change /veh KIR2DL2 /// KIR2DL4 /// KIR2DL5A /// KIR2DL5B /// KIR2DS1 /// KIR2DS2 /// KIR2DS3 /// KIR2DS4 /// KIR3DL3 /// KIR3DL3 /// KIR3DS1 (11738374_at) / RFU C1QL1 (11718748_at) / Fold change /veh C1QL1 (11718748_at) / RFU TMPRSS4 (11747572_a_at) / Fold change /veh TMPRSS4 (11747572_a_at) / RFU HAMP (11756126_x_at) / Fold change /veh HAMP (11756126_x_at) / RFU RNFT2 (11725882_a_at) / Fold change /veh RNFT2 (11725882_a_at) / RFU NR4A2 (11747474_a_at) / Fold change /veh NR4A2 (11747474_a_at) / RFU ABCC12 (11746883_a_at) / Fold change /veh ABCC12 (11746883_a_at) / RFU TMEM136 (11760407_x_at) / Fold change /veh TMEM136 (11760407_x_at) / RFU CLDN22 /// WWC2 (11732394_at) / Fold change /veh CLDN22 /// WWC2 (11732394_at) / RFU HLA-DPB1 (11760878_x_at) / Fold change /veh HLA-DPB1 (11760878_x_at) / RFU SPINT1 (11716480_a_at) / Fold change /veh SPINT1 (11716480_a_at) / RFU GAP43 (11754022_s_at) / Fold change /veh GAP43 (11754022_s_at) / RFU A4GNT (11735810_at) / Fold change /veh A4GNT (11735810_at) / RFU PRB3 (11715151_x_at) / Fold change /veh PRB3 (11715151_x_at) / RFU TUBB4B (11761932_at) / Fold change /veh TUBB4B (11761932_at) / RFU CAPN14 (11732068_a_at) / Fold change /veh CAPN14 (11732068_a_at) / RFU TMCC2 (11721928_a_at) / Fold change /veh TMCC2 (11721928_a_at) / RFU IRGQ (11745062_a_at) / Fold change /veh IRGQ (11745062_a_at) / RFU FAM174B (11720279_a_at) / Fold change /veh FAM174B (11720279_a_at) / RFU TMPRSS4 (11748680_a_at) / Fold change /veh TMPRSS4 (11748680_a_at) / RFU FAM212B (11763350_a_at) / Fold change /veh FAM212B (11763350_a_at) / RFU PLEKHG5 (11743358_a_at) / Fold change /veh PLEKHG5 (11743358_a_at) / RFU ZSCAN30 (11745921_a_at) / Fold change /veh ZSCAN30 (11745921_a_at) / RFU CMKLR1 (11741424_a_at) / Fold change /veh CMKLR1 (11741424_a_at) / RFU LOC101060620 /// MAPK8IP1 (11723275_at) / Fold change /veh LOC101060620 /// MAPK8IP1 (11723275_at) / RFU SPTSSB (11747773_x_at) / Fold change /veh SPTSSB (11747773_x_at) / RFU PRSS12 (11739890_at) / Fold change /veh PRSS12 (11739890_at) / RFU BIN1 (11741810_x_at) / Fold change /veh BIN1 (11741810_x_at) / RFU WNT11 (11732464_a_at) / Fold change /veh WNT11 (11732464_a_at) / RFU C10orf10 (11716521_a_at) / Fold change /veh C10orf10 (11716521_a_at) / RFU C5orf56 (11738089_at) / Fold change /veh C5orf56 (11738089_at) / RFU CYB561 (11721691_x_at) / Fold change /veh CYB561 (11721691_x_at) / RFU ANKRD19P (11752326_a_at) / Fold change /veh ANKRD19P (11752326_a_at) / RFU OR2T12 /// OR2T33 /// OR2T8 (11738714_s_at) / Fold change /veh OR2T12 /// OR2T33 /// OR2T8 (11738714_s_at) / RFU VCAN (11748164_a_at) / Fold change /veh VCAN (11748164_a_at) / RFU JSRP1 (11732532_at) / Fold change /veh JSRP1 (11732532_at) / RFU KRTAP10-11 (11738290_x_at) / Fold change /veh KRTAP10-11 (11738290_x_at) / RFU MYO3A (11730013_a_at) / Fold change /veh MYO3A (11730013_a_at) / RFU EBF3 (11725865_a_at) / Fold change /veh EBF3 (11725865_a_at) / RFU CAMK2N1 (11719241_x_at) / Fold change /veh CAMK2N1 (11719241_x_at) / RFU C5orf56 (11738088_a_at) / Fold change /veh C5orf56 (11738088_a_at) / RFU OLFML3 (11715873_a_at) / Fold change /veh OLFML3 (11715873_a_at) / RFU LOC100653217 /// NTM (11731650_a_at) / Fold change /veh LOC100653217 /// NTM (11731650_a_at) / RFU MAPK11 (11762145_a_at) / Fold change /veh MAPK11 (11762145_a_at) / RFU FIZ1 (11724087_x_at) / Fold change /veh FIZ1 (11724087_x_at) / RFU OASL (11726364_x_at) / Fold change /veh OASL (11726364_x_at) / RFU SOX15 (11748057_x_at) / Fold change /veh SOX15 (11748057_x_at) / RFU CD79A (11719716_a_at) / Fold change /veh CD79A (11719716_a_at) / RFU HIST1H1D (11736915_at) / Fold change /veh HIST1H1D (11736915_at) / RFU CASKIN2 (11723855_a_at) / Fold change /veh CASKIN2 (11723855_a_at) / RFU LOC730098 (11760151_x_at) / Fold change /veh LOC730098 (11760151_x_at) / RFU OR4N2 (11742367_at) / Fold change /veh OR4N2 (11742367_at) / RFU PRRT2 (11749266_a_at) / Fold change /veh PRRT2 (11749266_a_at) / RFU SNX32 (11753110_a_at) / Fold change /veh SNX32 (11753110_a_at) / RFU CDHR5 (11726645_a_at) / Fold change /veh CDHR5 (11726645_a_at) / RFU RCAN1 (11760418_a_at) / Fold change /veh RCAN1 (11760418_a_at) / RFU FAM167A (11723789_a_at) / Fold change /veh FAM167A (11723789_a_at) / RFU FAM26E (11764081_at) / Fold change /veh FAM26E (11764081_at) / RFU ISYNA1 (11749810_s_at) / Fold change /veh ISYNA1 (11749810_s_at) / RFU ACY1 (11761880_at) / Fold change /veh ACY1 (11761880_at) / RFU 11764098_at / Fold change /veh 11764098_at / RFU SAMD14 (11745864_x_at) / Fold change /veh SAMD14 (11745864_x_at) / RFU NPB (11741838_a_at) / Fold change /veh NPB (11741838_a_at) / RFU TMPRSS6 (11731388_a_at) / Fold change /veh TMPRSS6 (11731388_a_at) / RFU KRTAP10-2 (11738614_at) / Fold change /veh KRTAP10-2 (11738614_at) / RFU ARHGAP8 /// PRR5-ARHGAP8 (11727945_x_at) / Fold change /veh ARHGAP8 /// PRR5-ARHGAP8 (11727945_x_at) / RFU KRTAP5-7 /// NADSYN1 (11734609_at) / Fold change /veh KRTAP5-7 /// NADSYN1 (11734609_at) / RFU RASL12 (11751679_a_at) / Fold change /veh RASL12 (11751679_a_at) / RFU CDKN2B (11736163_a_at) / Fold change /veh CDKN2B (11736163_a_at) / RFU PRF1 (11729649_at) / Fold change /veh PRF1 (11729649_at) / RFU, ZNF638 /// ZNF638-IT1 / Fold change vs veh, ZNF638 /// ZNF638-IT1 / RFU, PANK3 / Fold change vs veh, PANK3 / RFU, SH3YL1 / Fold change vs veh, SH3YL1 / RFU, ZEB2 / Fold change vs veh, ZEB2 / RFU, NRIP1 / Fold change vs veh, NRIP1 / RFU, PTTG1IP / Fold change vs veh, PTTG1IP / RFU, CAPN2 / Fold change vs veh, CAPN2 / RFU, MED14 / Fold change vs veh, MED14 / RFU, SNORA58 / Fold change vs veh, SNORA58 / RFU, C1orf63 / Fold change vs veh, C1orf63 / RFU, LRRFIP1 / Fold change vs veh, LRRFIP1 / RFU, NDUFAF7 / Fold change vs veh, NDUFAF7 / RFU, SLC12A2 / Fold change vs veh, SLC12A2 / RFU, IBTK / Fold change vs veh, IBTK / RFU, ESF1 / Fold change vs veh, ESF1 / Fold change vs veh, TMEM50B / RFU, TAOK1 / Fold change vs veh, TAOK1 / RFU, ACBD3 / Fold change vs veh, ACBD3 / RFU, TMA16 / Fold change vs veh, TMA16 / RFU, RWDD3 / Fold change vs veh, RWDD3 / RFU, BCAT1 / Fold change vs veh, BCAT1 / RFU, EDEM3 / Fold change vs veh, EDEM3 / RFU, TMEM33 / Fold change vs veh, TMEM33 / RFU, WDR75 / Fold change vs veh, WDR75 / RFU, AHCTF1 / Fold change vs veh, AHCTF1 / RFU, TFRC / Fold change vs veh, TFRC / RFU, ZDHHC17 / Fold change vs veh, ZDHHC17 / RFU, NOM1 / Fold change vs veh, NOM1 / RFU, ARL8B / Fold change vs veh, ARL8B / RFU, ZBTB11 / Fold change vs veh, ZBTB11 / RFU, TAMM41 / Fold change vs veh, TAMM41 / RFU, KIAA1704 /// LOC100996395 / Fold change vs veh, KIAA1704 /// LOC100996395 / RFU, ING1 / Fold change vs veh, ING1 / RFU, TRMT61B / Fold change vs veh, TRMT61B / RFU, FUBP3 / Fold change vs veh, FUBP3 / RFU, TP53 / Fold change vs veh, TP53 / RFU, TNKS2 / Fold change vs veh, TNKS2 / RFU, ZFP14 / Fold change vs veh, ZFP14 / RFU, ACTR2 / Fold change vs veh, ACTR2 / RFU, PPP3R1 / Fold change vs veh, PPP3R1 / RFU, PIK3R1 / Fold change vs veh, PIK3R1 / RFU, HNRNPA1 / Fold change vs veh, HNRNPA1 / RFU, RNF170 / Fold change vs veh, RNF170 / RFU, ZNF28 / Fold change vs veh, ZNF28 / RFU, RNGTT / Fold change vs veh, RNGTT / RFU, OGT / Fold change vs veh, OGT / RFU, BRD1 / Fold change vs veh, BRD1 / RFU, MARS / Fold change vs veh, MARS / RFU, ZNF655 / Fold change vs veh, ZNF655 / RFU, FAHD1 / Fold change vs veh, FAHD1 / RFU, BDP1 / Fold change vs veh, BDP1 / RFU, LRRCC1 / Fold change vs veh, LRRCC1 / RFU, ARID1A / Fold change vs veh, ARID1A / RFU, ZNF146 / Fold change vs veh, ZNF146 / RFU, ZNF330 / Fold change vs veh, ZNF330 / RFU, GPN3 / Fold change vs veh, GPN3 / RFU, C9orf123 / Fold change vs veh, C9orf123 / RFU, N4BP2L2 / Fold change vs veh, N4BP2L2 / RFU, ARFIP1 / Fold change vs veh, ARFIP1 / RFU, FAM179B / Fold change vs veh, FAM179B / RFU, BCL10 / Fold change vs veh, BCL10 / RFU, UHRF1BP1L / Fold change vs veh, UHRF1BP1L / RFU, BET1 / Fold change vs veh, BET1 / RFU, CNOT2 / Fold change vs veh, CNOT2 / RFU, ZNF268 / Fold change vs veh, ZNF268 / Fold change vs veh, ZNF507 / RFU, DGCR2 / Fold change vs veh, DGCR2 / RFU, WDSUB1 / Fold change vs veh, WDSUB1 / Fold change vs veh, HSP90B1 /// MIR3652 / RFU, ADSS / Fold change vs veh, ADSS / RFU, GK / Fold change vs veh, GK / RFU, ZNF148 / Fold change vs veh, ZNF148 / RFU, TAF9 / Fold change vs veh, TAF9 / RFU, SLC1A5 / Fold change vs veh, SLC1A5 / RFU, SLMO2 / Fold change vs veh, SLMO2 / RFU, ABCC4 / Fold change vs veh, ABCC4 / RFU, LOC101060439 /// RAP1B / Fold change vs veh, LOC101060439 /// RAP1B / RFU, RFX7 / Fold change vs veh, RFX7 / RFU, GTPBP10 / Fold change vs veh, GTPBP10 / RFU, CNEP1R1 / Fold change vs veh, CNEP1R1 / RFU, BIVM-ERCC5 /// ERCC5 / Fold change vs veh, BIVM-ERCC5 /// ERCC5 / RFU, ILF3 / Fold change vs veh, ILF3 / RFU 11762660_at / Fold change /veh 11762660_at / RFU VCAN (11757783_s_at) / Fold change /veh VCAN (11757783_s_at) / RFU DDX43 (11728927_at) / Fold change /veh DDX43 (11728927_at) / RFU KRT8 (11758188_x_at) / Fold change /veh KRT8 (11758188_x_at) / RFU NKD1 (11759106_at) / Fold change /veh NKD1 (11759106_at) / RFU SRD5A1 (11742802_a_at) / Fold change /veh SRD5A1 (11742802_a_at) / RFU TPSAB1 /// TPSB2 (11721975_s_at) / Fold change /veh TPSAB1 /// TPSB2 (11721975_s_at) / RFU GSTM3 (11746129_a_at) / Fold change /veh GSTM3 (11746129_a_at) / RFU IL23R (11737362_x_at) / Fold change /veh IL23R (11737362_x_at) / RFU TMEM51 (11727254_a_at) / Fold change /veh TMEM51 (11727254_a_at) / RFU PIWIL2 (11732686_x_at) / Fold change /veh PIWIL2 (11732686_x_at) / RFU ORM1 (11744905_x_at) / Fold change /veh ORM1 (11744905_x_at) / RFU CCDC152 (11743942_at) / Fold change /veh CCDC152 (11743942_at) / RFU ECM1 (11717891_a_at) / Fold change /veh ECM1 (11717891_a_at) / RFU IL23R (11748794_a_at) / Fold change /veh IL23R (11748794_a_at) / RFU TNFAIP8L3 (11732012_x_at) / Fold change /veh TNFAIP8L3 (11732012_x_at) / RFU MBOAT4 (11741988_at) / Fold change /veh MBOAT4 (11741988_at) / RFU 11764193_at / Fold change /veh 11764193_at / RFU TMEM53 (11763286_at) / Fold change /veh TMEM53 (11763286_at) / RFU MAGEB2 (11727129_at) / Fold change /veh MAGEB2 (11727129_at) / RFU TMEM200A (11744735_a_at) / Fold change /veh TMEM200A (11744735_a_at) / RFU CCDC152 (11751479_a_at) / Fold change /veh CCDC152 (11751479_a_at) / RFU FAM211A (11726209_a_at) / Fold change /veh FAM211A (11726209_a_at) / RFU RGS16 (11746705_a_at) / Fold change /veh RGS16 (11746705_a_at) / RFU VCAN (11755009_s_at) / Fold change /veh VCAN (11755009_s_at) / RFU RHOB (11743442_s_at) / Fold change /veh RHOB (11743442_s_at) / RFU RGS16 (11720943_a_at) / Fold change /veh RGS16 (11720943_a_at) / RFU RGS16 (11720944_at) / Fold change /veh RGS16 (11720944_at) / RFU, VPS4B / Fold change vs veh, VPS4B / RFU, CREB1 / Fold change vs veh, CREB1 / RFU, DNAJC13 / Fold change vs veh, DNAJC13 / RFU, GNAQ / Fold change vs veh, GNAQ / RFU, CDK5R1 / Fold change vs veh, CDK5R1 / RFU, ZRANB3 / Fold change vs veh, ZRANB3 / RFU, CUL4A / Fold change vs veh, CUL4A / RFU, CCNY / Fold change vs veh, CCNY / RFU, UFL1 / Fold change vs veh, UFL1 / RFU, COG3 / Fold change vs veh, COG3 / RFU, DIAPH2 / Fold change vs veh, DIAPH2 / RFU, SKA2 / Fold change vs veh, SKA2 / RFU, AFF3 / Fold change vs veh, AFF3 / RFU, LMF1 / Fold change vs veh, LMF1 / RFU, IPO11 / Fold change vs veh, IPO11 / RFU, DFFB / Fold change vs veh, DFFB / RFU, FOXP1 / Fold change vs veh, FOXP1 / RFU, CARD8 / Fold change vs veh, CARD8 / RFU, STRN3 / Fold change vs veh, STRN3 / RFU, ADK / Fold change vs veh, ADK / RFU, RASSF2 / Fold change vs veh, RASSF2 / RFU, WIPF1 / Fold change vs veh, WIPF1 / RFU, LARP1B / Fold change vs veh, LARP1B / RFU, RASA1 / Fold change vs veh, RASA1 / RFU, RB1 / Fold change vs veh, RB1 / RFU, PPFIA1 / Fold change vs veh, PPFIA1 / RFU, MAT2A / Fold change vs veh, MAT2A / RFU, CCT5 / Fold change vs veh, CCT5 / RFU, WDR92 / Fold change vs veh, WDR92 / RFU, CUX1 / Fold change vs veh, CUX1 / RFU, TTC7A / Fold change vs veh, TTC7A / RFU, TMEM135 / Fold change vs veh, TMEM135 / RFU, DEPTOR / Fold change vs veh, DEPTOR / RFU, CPM / Fold change vs veh, CPM / RFU, DNAJB6 / Fold change vs veh, DNAJB6 / RFU, CACNA2D3 / Fold change vs veh, CACNA2D3 / RFU, DTX4 / Fold change vs veh, DTX4 / RFU, TFCP2 / Fold change vs veh, TFCP2 / RFU, GMCL1 /// GMCL1P1 / Fold change vs veh, GMCL1 /// GMCL1P1 / RFU, AEBP2 / Fold change vs veh, AEBP2 / RFU, SNHG1 /// SNORD22 /// SNORD25 /// SNORD26 /// SNORD27 /// SNORD28 /// SNORD29 /// SNORD31 / Fold change vs veh, SNHG1 /// SNORD22 /// SNORD25 /// SNORD26 /// SNORD27 /// SNORD28 /// SNORD29 /// SNORD31 / Fold change (Aza/veh), C12orf56 (ProbeSet 11735607_a_at) / Fold change (ACY-1035/veh), C12orf56 (ProbeSet 11735607_a_at) / Fold change (Aza/veh), FGFR1OP (ProbeSet 11751329_s_at) / Fold change (ACY-1035/veh), FGFR1OP (ProbeSet 11751329_s_at) / Fold change (Aza/veh), VPS36 (ProbeSet 11739960_a_at) / Fold change (ACY-1035/veh), VPS36 (ProbeSet 11739960_a_at) / RFU SYPL1 (11715823_x_at) / Fold change /veh SYPL1 (11715823_x_at) / RFU IGFBP7 (11715501_s_at) / Fold change /veh IGFBP7 (11715501_s_at) / RFU REEP3 (11722064_at) / Fold change /veh REEP3 (11722064_at) / RFU IGLL1 (11728026_x_at) / Fold change /veh IGLL1 (11728026_x_at): dose or concentration left out as unconfirmed
# Conditions: MV-4-11 cells, 48 hours
smiles,measurement,value
Nc1ccc(-c2cccs2)cc1NC(=O)c1ccc2c(c1)cc(C1CC1)n2CCN1CCOCC1 [ACY-1035],RFU IL23R (11748794_a_at),5.77 RFU
